# Measurements published in US10000474B2, “Histone deacetylase inhibitors and uses thereof” (MUSC FOUNDATION FOR RESEARCH DEVELOPMENT, priority 2014, dated 2018).
# Where a name gives a salt, the structure may show the parent alone.
# How the values were obtained:
# Type in all cases: biochemical
# Settings in all cases: test concentration not given; average of triplicate
# [1] = molecular target: T1, Recombinant human HDAC2 (Homo sapiens, UniProt Q92769); assay: HDAC inhibitory assay, HDAC2 (Boc-Lys(Ac)-AMC substrate)
# T1 construct: purchased BPS Biosciences
# Experimental: (§1) The compounds of Examples 1-12 and 14-16 were evaluated for their ability to act as inhibitors of human HDAC. The compound of Example 13 was not tested. Recombinant human HDAC1, HDAC2, HDAC3/NcoR2, HDAC5, HDAC6, HDAC8, HDAC9, HDAC10 and HDAC11 were purchased from BPS Biosciences. Recombinant human HDAC4 and HDAC7 were purchased from Millipore. The substrate Boc-Lys(Ac)-AMC and Boc-Lys(Tfa)-AMC were purchased from Bachem. The substrate Ac-RHK(Ac)K(Ac)-AMC was purchased from Enzo Life Sciences. Due to the different specific activities of each isoform, different amount of enzyme was used in each isoform screening assay. In these assays, trichostatin A (TSA), suberanilohydroxamic acid and diphenylacetohydroxamic acid (DPAHA) were employed as positive controls. All determinations were carried out in triplicate, and reported values were the average of these determinations, which in no case varied by more than 5%.
# (§2) Then 25 μl of the Boc-Lys(Ac)-AMC substrate (50 μM final concentration) was added and incubated at 37° C. for 30-60 min, and followed by adding 50 μl of developer (1 mg/ml trypsin and 1 μM TSA). The last step was reading the samples in a SpectraMax M5 plate reader (Molecular Devices) at an excitation wavelength of 360 nm and an emission wavelength of 460 nm.
# [2] = molecular target: T2, Recombinant human HDAC7 (Homo sapiens, UniProt Q8WUI4); assay: HDAC inhibitory assay, HDAC7 (Boc-Lys(Tfa)-AMC substrate)
# T2 construct: purchased Millipore
# T2 sequence (Q8WUI4 1-952): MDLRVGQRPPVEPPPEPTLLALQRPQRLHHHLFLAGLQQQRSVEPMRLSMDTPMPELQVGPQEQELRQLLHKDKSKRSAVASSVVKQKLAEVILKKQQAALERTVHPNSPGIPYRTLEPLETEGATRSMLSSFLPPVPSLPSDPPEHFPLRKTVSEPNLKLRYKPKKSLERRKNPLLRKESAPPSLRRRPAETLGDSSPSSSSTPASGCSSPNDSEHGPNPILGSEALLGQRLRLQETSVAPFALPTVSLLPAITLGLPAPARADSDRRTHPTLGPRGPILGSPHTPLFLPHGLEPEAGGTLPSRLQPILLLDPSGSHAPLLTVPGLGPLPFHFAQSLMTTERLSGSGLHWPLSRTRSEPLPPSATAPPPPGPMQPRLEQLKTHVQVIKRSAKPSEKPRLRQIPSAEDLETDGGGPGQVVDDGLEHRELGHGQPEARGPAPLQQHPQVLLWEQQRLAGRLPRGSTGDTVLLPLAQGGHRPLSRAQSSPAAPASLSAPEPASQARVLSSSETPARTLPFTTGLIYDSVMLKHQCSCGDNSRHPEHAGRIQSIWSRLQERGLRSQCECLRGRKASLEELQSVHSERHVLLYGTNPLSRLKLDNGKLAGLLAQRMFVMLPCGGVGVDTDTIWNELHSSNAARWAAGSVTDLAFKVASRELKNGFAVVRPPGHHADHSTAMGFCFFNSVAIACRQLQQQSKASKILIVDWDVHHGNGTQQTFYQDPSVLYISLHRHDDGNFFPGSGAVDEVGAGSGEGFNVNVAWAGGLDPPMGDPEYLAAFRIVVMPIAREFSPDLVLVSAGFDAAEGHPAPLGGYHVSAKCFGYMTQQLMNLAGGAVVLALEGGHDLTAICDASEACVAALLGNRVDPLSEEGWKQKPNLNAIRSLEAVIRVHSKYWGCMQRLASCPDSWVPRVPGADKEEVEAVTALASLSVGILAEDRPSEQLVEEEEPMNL
# Experimental: as §1
# (§3) For evaluating the inhibition of class IIa HDACs (HDAC4, HDAC5, HDAC7 and HDAC9) and class IV HDAC (HDAC11), 10 μl of test samples were first incubated with 1 ng HDAC4 (specific activity=15400 pmol/min/μg), 5 ng HDAC5 (specific activity=2521 pmol/min/μg), 1 ng HDAC7 (specific activity=26340 pmol/min/μg), 5 ng HDAC9 (specific activity=3000 pmol/min/μg), and 500 ng HDAC11 (specific activity=1.8 pmol/min/μg) respectively. Then 25 μl of the Boc-Lys(Tfa)-AMC substrate (50 μM final concentration) was added and incubated at 37° C. for 30-60 min, and followed by adding 50 μl of developer. The last step was to read the samples in a SpectraMax M5 plate reader (Molecular Devices) at an excitation wavelength of 360 nm and an emission wavelength of 460 nm.
# [3] = molecular target: T3, Recombinant human HDAC9 (Homo sapiens, UniProt Q9UKV0); assay: HDAC inhibitory assay, HDAC9 (Boc-Lys(Tfa)-AMC substrate)
# T3 construct: purchased BPS Biosciences
# Experimental: as §1, §3
# [4] = molecular target: T4, Recombinant human HDAC3/NcoR2 (Homo sapiens, UniProt O15379); assay: HDAC inhibitory assay, HDAC3 (Boc-Lys(Ac)-AMC substrate)
# T4 construct: purchased BPS Biosciences
# Experimental: as §1, §2
# [5] = molecular target: T5, Recombinant human HDAC1 (Homo sapiens, UniProt Q13547); assay: HDAC inhibitory assay, HDAC1 (Boc-Lys(Ac)-AMC substrate)
# T5 construct: purchased BPS Biosciences
# Experimental: as §1, §2
# [6] = molecular target: T6, Recombinant human HDAC8 (Homo sapiens, UniProt Q9BY41); assay: HDAC inhibitory assay, HDAC8 (Ac-RHK(Ac)K(Ac)-AMC substrate)
# T6 construct: purchased BPS Biosciences
# T6 sequence (Q9BY41 1-377): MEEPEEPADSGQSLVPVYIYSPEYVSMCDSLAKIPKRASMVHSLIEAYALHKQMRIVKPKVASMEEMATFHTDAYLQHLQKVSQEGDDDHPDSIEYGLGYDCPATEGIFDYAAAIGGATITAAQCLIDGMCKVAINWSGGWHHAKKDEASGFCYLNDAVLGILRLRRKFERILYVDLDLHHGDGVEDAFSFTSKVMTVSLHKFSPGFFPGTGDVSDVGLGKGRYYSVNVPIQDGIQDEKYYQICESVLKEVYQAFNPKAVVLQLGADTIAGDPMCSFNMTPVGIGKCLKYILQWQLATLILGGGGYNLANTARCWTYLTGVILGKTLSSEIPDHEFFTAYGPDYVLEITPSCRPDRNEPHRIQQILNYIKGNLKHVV
# Experimental: as §1
# For evaluating the inhibition of HDAC8, 10 μl of test samples were first incubated with 25 ng HDAC8 (specific activity 298 pmol/min/μg). Then 25 μl of the fluorogenic peptide from p53 residues 379-382 (Ac-RHK(Ac)K(Ac)-AMC, 50 μM final concentration) was added and incubated at 37° C. for 30-60 min, and followed by adding 50 μl of developer (1 mg/ml trypsin and 1 uM TSA). The last step was to read the samples in a SpectraMax M5 plate reader (Molecular Devices) at an excitation wavelength of 360 nm and an emission wavelength of 460 nm.
# [7] = molecular target: T7, Recombinant human HDAC4 (Homo sapiens, UniProt P56524); assay: HDAC inhibitory assay, HDAC4 (Boc-Lys(Tfa)-AMC substrate)
# T7 construct: purchased Millipore
# Experimental: as §1, §3
# [8] = molecular target: T8, Recombinant human HDAC5 (Homo sapiens, UniProt Q9UQL6); assay: HDAC inhibitory assay, HDAC5 (Boc-Lys(Tfa)-AMC substrate)
# T8 construct: purchased BPS Biosciences
# Experimental: as §1, §3
# T1 sequence (Q92769 whole entry): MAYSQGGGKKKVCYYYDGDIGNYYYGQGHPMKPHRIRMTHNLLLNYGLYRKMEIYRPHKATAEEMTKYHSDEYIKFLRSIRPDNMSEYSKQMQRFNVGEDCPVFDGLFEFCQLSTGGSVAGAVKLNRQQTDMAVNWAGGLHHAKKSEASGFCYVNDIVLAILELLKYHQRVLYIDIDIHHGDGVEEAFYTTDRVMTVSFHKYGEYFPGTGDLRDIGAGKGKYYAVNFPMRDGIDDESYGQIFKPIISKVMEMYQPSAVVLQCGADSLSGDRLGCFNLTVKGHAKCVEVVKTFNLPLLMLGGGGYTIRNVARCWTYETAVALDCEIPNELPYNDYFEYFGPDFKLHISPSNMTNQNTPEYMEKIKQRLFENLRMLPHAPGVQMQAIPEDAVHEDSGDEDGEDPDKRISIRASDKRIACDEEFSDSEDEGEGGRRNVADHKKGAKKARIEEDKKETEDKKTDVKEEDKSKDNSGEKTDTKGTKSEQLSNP
# T7 sequence (P56524 whole entry): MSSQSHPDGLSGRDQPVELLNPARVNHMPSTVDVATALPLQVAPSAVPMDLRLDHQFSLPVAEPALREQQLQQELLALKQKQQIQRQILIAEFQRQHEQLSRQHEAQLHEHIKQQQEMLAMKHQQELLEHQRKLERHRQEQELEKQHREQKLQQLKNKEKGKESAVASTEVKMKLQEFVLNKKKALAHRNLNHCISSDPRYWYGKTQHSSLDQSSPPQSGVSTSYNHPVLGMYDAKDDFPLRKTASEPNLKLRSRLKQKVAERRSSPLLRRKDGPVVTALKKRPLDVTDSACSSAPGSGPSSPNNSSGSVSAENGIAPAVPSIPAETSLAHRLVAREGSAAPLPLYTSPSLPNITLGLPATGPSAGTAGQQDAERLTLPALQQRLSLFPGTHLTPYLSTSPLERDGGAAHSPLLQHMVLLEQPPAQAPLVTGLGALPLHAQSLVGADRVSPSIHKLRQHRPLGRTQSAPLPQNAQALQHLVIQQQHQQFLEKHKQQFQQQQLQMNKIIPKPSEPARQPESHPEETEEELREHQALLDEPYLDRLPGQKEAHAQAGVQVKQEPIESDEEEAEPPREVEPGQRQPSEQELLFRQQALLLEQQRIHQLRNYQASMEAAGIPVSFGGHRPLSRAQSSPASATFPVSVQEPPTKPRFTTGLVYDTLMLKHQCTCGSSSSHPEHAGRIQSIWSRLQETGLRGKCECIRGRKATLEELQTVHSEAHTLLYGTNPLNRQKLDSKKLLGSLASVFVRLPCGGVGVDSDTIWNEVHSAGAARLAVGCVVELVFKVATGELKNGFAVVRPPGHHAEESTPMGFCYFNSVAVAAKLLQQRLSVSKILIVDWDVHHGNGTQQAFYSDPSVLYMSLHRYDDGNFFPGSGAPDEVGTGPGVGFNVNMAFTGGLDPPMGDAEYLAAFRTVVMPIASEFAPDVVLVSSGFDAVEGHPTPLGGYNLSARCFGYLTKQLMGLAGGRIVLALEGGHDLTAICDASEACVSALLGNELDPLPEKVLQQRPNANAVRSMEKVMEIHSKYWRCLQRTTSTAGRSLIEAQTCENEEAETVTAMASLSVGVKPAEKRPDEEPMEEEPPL
# T3 sequence (Q9UKV0 whole entry): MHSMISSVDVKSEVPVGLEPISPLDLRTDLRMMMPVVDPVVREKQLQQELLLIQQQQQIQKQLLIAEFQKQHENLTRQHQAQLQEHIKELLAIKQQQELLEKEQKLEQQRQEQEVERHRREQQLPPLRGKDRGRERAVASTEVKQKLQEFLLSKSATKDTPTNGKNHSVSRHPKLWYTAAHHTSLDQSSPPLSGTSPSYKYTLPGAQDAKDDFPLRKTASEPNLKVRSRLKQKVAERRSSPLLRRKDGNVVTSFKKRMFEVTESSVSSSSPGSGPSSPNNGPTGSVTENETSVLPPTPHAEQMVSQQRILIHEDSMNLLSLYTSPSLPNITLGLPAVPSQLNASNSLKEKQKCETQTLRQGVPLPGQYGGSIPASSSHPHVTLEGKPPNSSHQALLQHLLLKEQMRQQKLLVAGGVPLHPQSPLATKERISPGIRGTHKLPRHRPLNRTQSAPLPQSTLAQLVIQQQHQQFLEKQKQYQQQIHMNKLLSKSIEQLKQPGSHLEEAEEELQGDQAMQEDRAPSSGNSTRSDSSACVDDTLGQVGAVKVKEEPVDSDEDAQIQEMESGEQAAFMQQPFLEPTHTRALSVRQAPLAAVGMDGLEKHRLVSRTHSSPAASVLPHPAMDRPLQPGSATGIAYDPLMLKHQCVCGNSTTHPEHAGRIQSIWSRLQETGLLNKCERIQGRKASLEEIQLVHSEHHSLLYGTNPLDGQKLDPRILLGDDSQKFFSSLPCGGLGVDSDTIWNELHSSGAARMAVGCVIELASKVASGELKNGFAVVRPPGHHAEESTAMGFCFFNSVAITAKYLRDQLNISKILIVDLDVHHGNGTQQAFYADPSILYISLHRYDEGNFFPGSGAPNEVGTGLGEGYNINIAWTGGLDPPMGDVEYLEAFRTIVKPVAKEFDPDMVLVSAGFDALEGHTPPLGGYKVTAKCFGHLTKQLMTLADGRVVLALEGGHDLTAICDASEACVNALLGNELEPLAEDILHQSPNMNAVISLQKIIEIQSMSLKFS
# T5 sequence (Q13547 whole entry): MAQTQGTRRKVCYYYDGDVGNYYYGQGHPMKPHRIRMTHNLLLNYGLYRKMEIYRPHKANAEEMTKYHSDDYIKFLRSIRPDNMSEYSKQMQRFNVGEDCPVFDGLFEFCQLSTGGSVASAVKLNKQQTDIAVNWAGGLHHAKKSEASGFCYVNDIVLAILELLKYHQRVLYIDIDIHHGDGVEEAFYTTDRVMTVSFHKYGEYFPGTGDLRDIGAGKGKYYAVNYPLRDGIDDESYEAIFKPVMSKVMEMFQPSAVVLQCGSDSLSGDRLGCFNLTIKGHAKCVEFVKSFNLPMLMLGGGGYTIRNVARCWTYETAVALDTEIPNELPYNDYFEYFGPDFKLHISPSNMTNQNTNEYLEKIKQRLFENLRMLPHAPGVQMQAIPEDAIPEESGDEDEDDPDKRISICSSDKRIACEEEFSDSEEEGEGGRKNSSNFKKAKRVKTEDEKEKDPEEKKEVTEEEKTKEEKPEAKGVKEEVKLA
# T8 sequence (Q9UQL6 whole entry): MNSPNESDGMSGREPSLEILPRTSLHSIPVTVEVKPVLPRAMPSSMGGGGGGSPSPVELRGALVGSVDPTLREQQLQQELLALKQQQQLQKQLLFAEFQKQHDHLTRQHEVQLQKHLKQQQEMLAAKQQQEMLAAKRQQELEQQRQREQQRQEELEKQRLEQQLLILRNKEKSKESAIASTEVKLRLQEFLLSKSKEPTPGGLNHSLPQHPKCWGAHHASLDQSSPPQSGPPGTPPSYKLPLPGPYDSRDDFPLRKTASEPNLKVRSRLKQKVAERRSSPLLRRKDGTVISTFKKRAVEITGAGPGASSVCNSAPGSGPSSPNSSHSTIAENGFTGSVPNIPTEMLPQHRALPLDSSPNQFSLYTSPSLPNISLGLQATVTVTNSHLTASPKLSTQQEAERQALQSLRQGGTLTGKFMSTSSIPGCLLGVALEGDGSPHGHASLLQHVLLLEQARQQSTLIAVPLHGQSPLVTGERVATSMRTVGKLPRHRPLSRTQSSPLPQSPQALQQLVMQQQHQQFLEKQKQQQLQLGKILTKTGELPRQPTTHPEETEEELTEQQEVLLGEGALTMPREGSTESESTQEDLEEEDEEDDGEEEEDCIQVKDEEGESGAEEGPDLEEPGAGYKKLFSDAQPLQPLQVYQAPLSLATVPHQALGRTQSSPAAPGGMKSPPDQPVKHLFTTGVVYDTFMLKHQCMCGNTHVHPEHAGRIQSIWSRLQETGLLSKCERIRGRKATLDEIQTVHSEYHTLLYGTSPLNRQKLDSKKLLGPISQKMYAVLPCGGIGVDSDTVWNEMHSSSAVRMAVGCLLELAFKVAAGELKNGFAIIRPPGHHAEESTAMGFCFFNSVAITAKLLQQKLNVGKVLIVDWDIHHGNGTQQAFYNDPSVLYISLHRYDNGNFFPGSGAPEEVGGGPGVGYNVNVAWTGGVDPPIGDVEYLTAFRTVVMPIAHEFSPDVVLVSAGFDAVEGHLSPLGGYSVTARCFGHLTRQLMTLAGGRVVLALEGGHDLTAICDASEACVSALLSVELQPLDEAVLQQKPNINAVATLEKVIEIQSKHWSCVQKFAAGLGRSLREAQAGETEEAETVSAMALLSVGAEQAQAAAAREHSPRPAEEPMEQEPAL
# T4 sequence (O15379 whole entry): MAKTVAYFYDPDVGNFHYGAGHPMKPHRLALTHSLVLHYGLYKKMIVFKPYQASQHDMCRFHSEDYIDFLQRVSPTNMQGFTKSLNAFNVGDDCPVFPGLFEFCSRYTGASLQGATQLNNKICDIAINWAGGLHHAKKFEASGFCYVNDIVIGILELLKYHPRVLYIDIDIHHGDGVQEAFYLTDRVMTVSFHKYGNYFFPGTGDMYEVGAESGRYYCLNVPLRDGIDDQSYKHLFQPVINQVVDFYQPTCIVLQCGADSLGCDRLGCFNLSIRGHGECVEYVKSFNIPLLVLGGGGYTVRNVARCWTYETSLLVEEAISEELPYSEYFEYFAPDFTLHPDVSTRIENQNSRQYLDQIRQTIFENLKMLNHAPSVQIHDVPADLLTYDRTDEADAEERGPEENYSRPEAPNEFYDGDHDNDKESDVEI
# T4 sequence (Q9Y618 395-489 partner limits assumed): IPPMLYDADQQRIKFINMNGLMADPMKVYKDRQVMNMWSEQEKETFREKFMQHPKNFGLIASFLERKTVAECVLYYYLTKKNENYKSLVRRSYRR
SMILES,HDAC 2 inhibitory activity [1],HDAC 7 inhibitory activity [2],HDAC 9 inhibitory activity [3],HDAC 3 inhibitory activity [4],HDAC 1 inhibitory activity [5],HDAC 8 inhibitory activity [6],HDAC 4 inhibitory activity [7],HDAC 5 inhibitory activity [8]
"O=C(NCCCCNC(=O)C(c1ccccc1)c1ccccc1)c1coc(-c2ccccc2O)n1 [Example 10, N-(4-(2,2-Diphenylacetamido)butyl)-2-(2-hydroxyphenyl)oxazole-4-carboxamide]",0%,2.2%,9.0%,4.0%,27.2%,0%,4.8%,1.4%
"O=C(Nc1ccccc1)c1ccc(CNC(=O)c2coc(-c3ccccc3O)n2)cc1 [Example 15, 2-(2-Hydroxyphenyl)-N-(4-(phenylcarbamoyl)benzyl)oxazole-4-carboxamide]",41.3%,9.9%,24.3%,15.8%,47%,0%,18.3%,0%
"O=C(CNC(=O)c1coc(-c2ccccc2O)n1)Nc1ccccc1 [Example 16, 2-(2-Hydroxyphenyl)-N-(2-oxo-2-(phenylamino)ethyl)oxazole-4-carboxamide]",32.0%,0%,14.2%,36.9%,25.5%,15.0%,28.1%,12.5%

# The next lines start with the values.
HDAC 2 inhibitory activity [1],HDAC 7 inhibitory activity [2],HDAC 9 inhibitory activity [3],HDAC 3 inhibitory activity [4],HDAC 1 inhibitory activity [5],HDAC 8 inhibitory activity [6],HDAC 4 inhibitory activity [7],HDAC 5 inhibitory activity [8],SMILES
1.3%,21.9%,70.2%,3.7%,43.3%,0%,55.8%,43.5%,"O=C(NCCCCNC(=S)NCCC(c1ccccc1)c1ccccc1)c1coc(-c2ccccc2O)n1 [Example 11, N-(4-(3-(3,3-Diphenylpropyl)thioureido)butyl)-2-(2-hydroxyphenyl)oxazole-4-carboxamide]"
19.7%,0%,16.4%,18.1%,32.2%,14.0%,6.5%,6.9%,"O=C(NCCCCNCCC(c1ccccc1)c1ccccc1)c1coc(-c2ccccc2O)n1 [Example 12, N-(4-((3,3-Diphenylpropyl)amino)butyl)-2-(2-hydroxyphenyl)oxazole-4-carboxamide hydrochloride]"
56.5%,9.3%,26.3%,39.7%,70.1%,20.0%,24.2%,12.6%,"O=C(O)c1ccc(CNC(=O)c2coc(-c3ccccc3O)n2)cc1 [Example 14, 4-((2-(2-Hydroxyphenyl)oxazole-4-carboxamido)methyl)benzoic acid]"
